Measured values from patent US20120232069A1, “PROCESS FOR PREPARING EFAVIRENZ POLYMORPH” (HETERO RESEARCH FOUNDATION, priority 2008, published 2012).

Assay: Hygroscopicity: increase of water content on storage at 25° C. under relative humidity of 60%
Format: physicochemical
Settings: six months
Description: Thus, for example, water content of crystalline form H1 produced according to the present invention is increased by 0.2% in six months at the temperature of 25° C. under relative humidity of 60%. Crystalline form H1 obtained according to the present invention typically has the water content of 2.5-8% by weight of the product obtained, more preferably 3-7% by weight, still more preferably 4-6% by weight as determined by Karl fisher method.

| increase of water content on storage [%] | SMILES |
| --- | --- |
| 2.37 | O=C1Nc2ccc(Cl)cc2[C@@](C#CC2CC2)(C(F)(F)F)O1 [crystalline form H1 disclosed in WO 2006/018853] [(4S)-6-chloro-4-(cyclopropylethynyl)-1,4-dihydro-4-(trifluoromethyl)-2H-3,1-benzoxazin-2-one] |
| 0.2 | O=C1Nc2ccc(Cl)cc2[C@@](C#CC2CC2)(C(F)(F)F)O1 [crystalline form H1 produced according to the present invent] [(4S)-6-chloro-4-(cyclopropylethynyl)-1,4-dihydro-4-(trifluoromethyl)-2H-3,1-benzoxazin-2-one] |
